# According to ChEMBL document CHEMBL1147621, “The discovery of biaryl acids and amides exhibiting antibacterial activity against Gram-positive bacteria” (2004):
# Calls of active or inactive are those of the source. The calls are words filed in the database; no cut-off is given here.
# Experiments:
# Staphylococcus aureus [1] = test: Antibacterial activity against Staphylococcus aureus F2490; assay type: functional
# Staphylococcus aureus [2] = test: Antibacterial activity against Staphylococcus aureus W30078c; assay type: functional
# Staphylococcus aureus [3] = test: Antibacterial activity of compound to inhibit the growth of Staphylococcus aureus 8325; assay type: functional
# Pseudomonas aeruginosa [4] = test: Antibacterial activity against Pseudomonas aeruginosa W30298; assay type: functional, organism-based
# Escherichia coli = test: Antibacterial activity against Escherichia coli H28233; assay type: functional, organism-based
# Staphylococcus aureus [5] = test: Antibacterial activity against Staphylococcus aureus 8325; assay type: functional
# Enterococcus faecium [6] = test: Antibacterial activity against Enterococcus faecium F24910; assay type: functional
# [7] = system: Streptococcus sp. 'group A'; test: Antibacterial activity against Grp A Strep S54408; assay type: functional
# Enterococcus faecium [8] = test: Antibacterial activity against E. species. T66429; assay type: functional
# [9] = system: Streptococcus sp. 'group A'; test: Antibacterial activity against Grp A Strep T32098; assay type: functional
# Pseudomonas aeruginosa [10] = test: Antibacterial activity against Pseudomonas aeruginosa W30279; assay type: functional, organism-based
# Bacteria [11] = test: Antibacterial activity of compound to inhibit the growth of Gram-positive bacteria; assay type: functional
# Bacteria [12] = test: Antibacterial activity of compound to inhibit the growth of Gram-positive bacteria; Range is 5-11 ug/mL; assay type: functional
# Bacteria [13] = test: Antibacterial activity of compound to inhibit the growth of Gram-positive bacteria; Range is 8-12 ug/mL; assay type: functional
structure (smiles),measurement,setting,value
O=C(N[C@@H](CC1CCCCC1)C(=O)O)c1cccc(-c2ccc(-c3ccccc3)cc2)c1,MIC,Staphylococcus aureus [1],20 µg/mL
same,MIC,Staphylococcus aureus [2],20 µg/mL
same,IC90,Staphylococcus aureus [3],4 µg/mL
same,MIC,Pseudomonas aeruginosa [4],inactive
same,MIC,Escherichia coli,inactive
same,MIC,Staphylococcus aureus [5],20 µg/mL
same,MIC,Enterococcus faecium [6],20 µg/mL
same,MIC,[7],10 µg/mL
same,MIC,Enterococcus faecium [8],20 µg/mL
same,MIC,[9],20 µg/mL
same,MIC,Pseudomonas aeruginosa [10],inactive
COC(=O)[C@H](CC1CCCCC1)NC(=O)c1ccc(Cl)c(-c2ccc(Cl)cc2)c1,IC90,Bacteria [11],> 50 µg/mL
O=C(NC(C(=O)O)c1ccccc1)c1ccc(Cl)c(-c2ccc(-c3ccccc3)cc2)c1 (configuration not stated),IC90,Bacteria [11],10 µg/mL
C[C@H](NC(=O)c1ccc(Cl)c(-c2ccc(Cl)cc2)c1)C(=O)O,IC90,Bacteria [11],> 50 µg/mL
Cc1cc(C(=O)N[C@@H](CC2CCCCC2)C(=O)O)ccc1-c1ccc(-c2ccccc2)cc1,IC90,Staphylococcus aureus [3],2 µg/mL
O=C(N[C@@H](CC1CCNCC1)C(=O)O)c1ccc(Cl)c(-c2ccc(Cl)cc2)c1,IC90,Bacteria [11],> 50 µg/mL
O=C(N[C@@H](CC1CCCCC1)C(=O)O)c1ccc(Cl)c(-c2cccc(Cl)c2)c1,MIC,Staphylococcus aureus [1],15 µg/mL
same,MIC,Staphylococcus aureus [2],20 µg/mL
same,IC90,Staphylococcus aureus [3],8 µg/mL
same,MIC,Pseudomonas aeruginosa [4],inactive
same,MIC,Escherichia coli,inactive
same,MIC,Staphylococcus aureus [5],15 µg/mL
same,MIC,Enterococcus faecium [6],20 µg/mL
same,MIC,[7],10 µg/mL
same,MIC,Enterococcus faecium [8],20 µg/mL
same,MIC,[9],20 µg/mL
same,MIC,Pseudomonas aeruginosa [10],inactive
O=C(O)c1ccc(Cl)c(-c2ccc(Cl)cc2)c1,IC90,Bacteria [11],> 50 µg/mL
O=C(N[C@@H](CC1CCCC1)C(=O)O)c1ccc(Cl)c(-c2ccc(Cl)cc2)c1,IC90,Bacteria [11],18 µg/mL
O=C(N[C@H](CC1CCCCC1)C(=O)O)c1ccc(Cl)c(-c2ccc(Cl)cc2)c1,IC90,Bacteria [12],11 µg/mL
O=C(N[C@@H](CC1CCCCC1)C(=O)O)c1ccc(Cl)c(-c2ccc(Cl)cc2)c1,MIC,Staphylococcus aureus [1],20 µg/mL
same,MIC,Staphylococcus aureus [2],20 µg/mL
same,IC90,Staphylococcus aureus [3],10 µg/mL
same,MIC,Pseudomonas aeruginosa [4],inactive
same,MIC,Escherichia coli,inactive
same,MIC,Staphylococcus aureus [5],20 µg/mL
same,MIC,Enterococcus faecium [6],> 20 µg/mL
same,MIC,[7],10 µg/mL
same,MIC,Enterococcus faecium [8],20 µg/mL
same,MIC,[9],20 µg/mL
same,MIC,Pseudomonas aeruginosa [10],inactive
NC(=O)c1ccc(Cl)c(-c2ccc(Cl)cc2)c1,IC90,Bacteria [11],> 50 µg/mL
NC(=O)c1ccc(Cl)c(-c2ccc(-c3ccccc3)cc2)c1,IC90,Bacteria [11],> 50 µg/mL
O=C(O)[C@@H]1CCCCN1C(=O)c1ccc(Cl)c(-c2ccc(-c3ccccc3)cc2)c1,IC90,Bacteria [11],25 µg/mL
Cc1ccc(C(=O)N[C@@H](CC2CCCCC2)C(=O)O)cc1-c1ccc(-c2ccccc2)cc1,IC90,Staphylococcus aureus [3],3 µg/mL
O=C(N[C@@H](Cc1ccccc1)C(=O)O)c1ccc(Cl)c(-c2ccc(Cl)cc2)c1,IC90,Bacteria [11],> 50 µg/mL
NC(=O)[C@H](CC1CCCCC1)NC(=O)c1ccc(Cl)c(-c2ccc(Cl)cc2)c1,IC90,Bacteria [13],12 µg/mL
